For the assay, the target named is T1, human B-Raf (Homo sapiens, UniProt P15056).
T1 construct: Flag; GST; made in house; host or cells: Sf9 insect cells (B-Raf); E. coli (MEK1-GST)
As to the kind of experiment: B-Raf Kinase to MEK1 ELISA. It is filed as biochemical. Conditions: for IC50: median, cpd concentrations from 10 μM to 30 nM in half log dilutions, read-out: Median IC50; for inhibition at 10 µM: read-out: % Inhib./10 uM. An excerpt:
TITLE: B-Raf Kinase to MEK1 ELISA
PURPOSE: To discover B-Raf Kinase inhibitors that can inhibit growth of tumor cells which contain oncogenic forms of Receptor Tyrosine Kinases or K-Ras, or B-Raf kinase.
Reagents: Flag/GST-tagged recombinant human B-Raf produced in Sf9 insect cells, human non-active Mek-1-GST (recombinant protein produced in E. coli); and a phospho-MEK1 specific poly-clonal Ab from Cell Signaling Technology (cat. #9121).
B-Raf1 Kinase Assay Procedure:
B-Raf-1 is used to phosphorylate GST-MEK1. MEK1 phosphorylation is measured by a phospho-specific antibody (from Cell Signaling Technology, cat. #9121) that detects phosphorylation of two serine residues at positions 217 and 221 on MEK1.
B-Raf Assay Stock Solutions:
1. Assay Dilution Buffer (ADB): 20 mM MOPS, pH 7.2, 25 mM β-glycerol phosphate, 5 mM EGTA, 1 mM sodium orthovanadate, 1 mM dithiothreitol.
2. Magnesium/ATP Cocktail: 200 μM cold ATP and 40 mM magnesium chloride in ADB.
3. Active Kinase: Active B-Raf: used at ˜20 ng per assay point.
4. Non-active GST-MEK1: Use at 100 nM (50 nM final).
6. Anti-GST Ab (Pharmacia)
7. Anti-rabbit Ab/Europium conjugate (Wallac)
1. Add 25 μl of ADB containing B-Raf and Mek per assay (i.e. per well of a 96 well plate)
2. Add 25 μl of 0.2 mM ATP and 40 mM magnesium chloride in ADB.
3. Incubate for 60 minutes at RT in a shaking incubator.
4. Transfer this mixture to an anti-GST Ab coated 96 well plate (Nunc Immunosorb plates coated o/n with a-GST.
5. Incubate for 60 minutes at 30° C. in a shaking incubator
6. Wash 3× with TBST, add Anti-Phospho MEK1 (1:1000)
7. Incubate for 60 minutes at 30° C. in a shaking incubator
8. Wash 3× with TBST, add Anti-rabbit Ab/Europium conjugate (Wallac) (1:500)
9. Incubate for 60 minutes at 30° C. in a shaking incubator
10. Add 100 ul of Wallac Delfia Enhancement Solution and shake for 10 minutes.
11. Read plates in Wallac Victor model Plate Reader.
12. Collect data analyze in Excel for single point and IC50 determinations.
Typically Raf-1 assay is run at cpd concentrations from 10 μM to 30 nM in half log dilutions. (% inhibition is determined for each cpd concentration)
(In general: In an ELISA, binding on a coated surface is turned into a signal by an enzyme label.)

Where two headings read alike, the source gives them in different places.

The source of these data is patent publication US20070219186A1, “Pyrazolo[1,5-A]pyrimidine derivatives and methods of use thereof” (priority 2006, published 2007).

T1 sequence (P15056 whole entry): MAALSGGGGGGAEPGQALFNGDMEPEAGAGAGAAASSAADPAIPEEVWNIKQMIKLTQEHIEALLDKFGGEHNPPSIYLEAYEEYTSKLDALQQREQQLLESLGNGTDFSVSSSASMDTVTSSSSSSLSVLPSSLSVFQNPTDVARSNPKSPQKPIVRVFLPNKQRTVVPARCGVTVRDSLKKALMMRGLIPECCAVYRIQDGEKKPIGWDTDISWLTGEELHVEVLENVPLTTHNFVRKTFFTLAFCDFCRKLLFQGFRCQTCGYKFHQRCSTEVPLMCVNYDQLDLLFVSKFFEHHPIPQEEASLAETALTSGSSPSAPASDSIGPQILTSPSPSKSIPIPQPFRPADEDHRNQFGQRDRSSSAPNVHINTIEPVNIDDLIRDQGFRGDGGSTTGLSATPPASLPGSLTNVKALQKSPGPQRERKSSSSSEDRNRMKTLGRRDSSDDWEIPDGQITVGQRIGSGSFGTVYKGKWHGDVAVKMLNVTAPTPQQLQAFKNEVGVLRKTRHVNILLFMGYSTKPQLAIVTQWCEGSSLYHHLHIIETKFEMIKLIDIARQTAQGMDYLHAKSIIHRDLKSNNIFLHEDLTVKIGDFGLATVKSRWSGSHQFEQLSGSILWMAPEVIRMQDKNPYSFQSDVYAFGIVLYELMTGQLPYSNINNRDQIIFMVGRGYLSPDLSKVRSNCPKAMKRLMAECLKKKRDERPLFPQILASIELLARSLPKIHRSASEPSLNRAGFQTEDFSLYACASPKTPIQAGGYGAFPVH

The term IC50 denotes the concentration at which inhibition is half-maximal. As to “4-[7-(3-{[3-(trifluoromethyl)benzoyl]amino}phenyl)pyrazolo[1,5-a]pyrimidin-2-yl]benzyl acetate [Example 142]”, the IC50 is greater than 10 µM. For the same compound, under “single point assay, 10 uM”, the “% Inhib./10 uM” value was determined as 48%.
Consider `CCOC(=O)c1cnn2c(-c3cccc(NC(=O)c4cccc(C(F)(F)F)c4)c3)ccnc12` [Example 1, Pyrazolo[1,5-a]pyrimidine-3-carboxylic acid, 7-[3-[[3-(trifluoromethyl)-benzoyl]amino]phenyl]-, ethyl ester], for which the IC50 is 0.72 µM and the inhibition at 10 µM came out at 66%.
For `CCOC(=O)c1cnn2c(-c3cccc(NC(=O)c4ccc(F)c(C(F)(F)F)c4)c3)ccnc12` [Example 2, ethyl 7-(3-{[4-fluoro-3-(trifluoromethyl)benzoyl]amino}phenyl)pyrazolo[1,5-a]pyrimidine-3-carboxylate], in that order: 17 µM and 84%.
For `CCOC(=O)c1cnn2c(-c3cccc(NC(=O)c4ccccc4)c3)ccnc12` [Example 3, Pyrazolo[1,5-a]pyrimidine-3-carboxylic acid, 7-[3-(benzoylamino)phenyl]-, ethyl ester], in that order: greater than 20 µM and 4%.
For `CCOC(=O)c1cnn2c(-c3cccc(NC(=O)c4cccc(Br)c4)c3)ccnc12` [Example 4, ethyl 7-{3-[(3-bromobenzoyl)amino]phenyl}pyrazolo[1,5-a]pyrimidine-3-carboxylate], in that order: greater than 10 µM and 4%.
In the case of `CCOC(=O)c1cnn2c(-c3cccc(NC(=O)c4cc5ccccc5s4)c3)ccnc12` [Example 5, ethyl 7-{3-[(1-benzothien-2-ylcarbonyl)amino]phenyl}pyrazolo[1,5-a]pyrimidine-3-carboxylate], the IC50 is greater than 20 µM and the inhibition at 10 µM was 24%.
For `CCOC(=O)c1cnn2c(-c3cccc(NC(=O)c4ccc(Cl)cc4)c3)ccnc12` [Example 6, ethyl 7-{3-[(4-chlorobenzoyl)amino]phenyl}pyrazolo[1,5-a]pyrimidine-3-carboxylate], in that order: greater than 20 µM and 38%.
With `CCOC(=O)c1cnn2c(-c3cccc(NC(=O)c4cccc(OC(F)(F)F)c4)c3)ccnc12` [Example 7, ethyl 7-(3-{[3-(trifluoromethoxy)benzoyl]amino}phenyl)pyrazolo[1,5-a]pyrimidine-3-carboxylate], the IC50 was 1.43 µM. Moreover, the inhibition at 10 µM (single point assay, 10 uM) was 67%.
For `CCOC(=O)c1cnn2c(-c3cccc(NC(=O)c4cccc(OC)c4)c3)ccnc12` [Example 8, ethyl 7-{3-[(3-methoxybenzoyl)amino]phenyl}pyrazolo[1,5-a]pyrimidine-3-carboxylate], the IC50 is greater than 10 µM. For the same compound, under “single point assay, 10 uM”, the inhibition at 10 µM stood at 28%.
For the compound `CCOC(=O)c1cnn2c(-c3cccc(NC(=O)c4ccc(C(F)(F)F)c(F)c4)c3)ccnc12` [Example 9, ethyl 7-(3-{[3-fluoro-4-(trifluoromethyl)benzoyl]amino}phenyl)pyrazolo[1,5-a]pyrimidine-3-carboxylate], the IC50 is greater than 20 µM and the inhibition at 10 µM turned out to be 20%.
For `CCOC(=O)c1cnn2c(-c3cccc(NC(=O)c4ccc(C(F)(F)F)cc4)c3)ccnc12` [Example 10, ethyl 7-(3-{[4-(trifluoromethyl)benzoyl]amino}phenyl)pyrazolo[1,5-a]pyrimidine-3-carboxylate], in that order: greater than 10 µM and 27%.
With `CCOC(=O)c1cnn2c(-c3cccc(NC(=O)Nc4ccc(Cl)c(C(F)(F)F)c4)c3)ccnc12` [Example 11, ethyl 7-{3-[({[4-chloro-3-(trifluoromethyl)phenyl]amino}carbonyl)amino]phenyl}pyrazolo[1,5-a]pyrimidine-3-carboxylate], the IC50 stood at 0.3 µM. Further, where the note is “single point assay, 10 uM”, the inhibition at 10 µM was 93%.
Turning to `CCOC(=O)c1cnn2c(-c3cccc(NS(=O)(=O)c4cccc(C(F)(F)F)c4)c3)ccnc12` [Example 12, ethyl 7-[3-({[3-(trifluoromethyl)phenyl]sulfonyl}amino)phenyl]pyrazolo[1,5-a]pyrimidine-3-carboxylate], the IC50 was greater than 20 µM and the inhibition at 10 µM turned out to be 7%.
For `CCOC(=O)c1cnn2c(-c3cccc(NC(=O)c4cccc(C#N)c4)c3)ccnc12` [Example 13, ethyl 7-{3-[(3-cyanobenzoyl)amino]phenyl}pyrazolo[1,5-a]pyrimidine-3-carboxylate], in that order: greater than 20 µM and 27%.
Turning to `CCOC(=O)c1cnn2c(-c3cccc(NC(=O)Nc4ccc(Cl)cc4Cl)c3)ccnc12` [Example 14, ethyl 7-[3-({[(2,4-dichlorophenyl)amino]carbonyl}amino)phenyl]pyrazolo[1,5-a]pyrimidine-3-carboxylate], the IC50 was greater than 10 µM and the inhibition at 10 µM was 0%.
For `CCOC(=O)c1cnn2c(-c3cccc(NC(=O)Nc4cc(C(F)(F)F)cc(C(F)(F)F)c4)c3)ccnc12` [Example 16, ethyl 7-{3-[({[3,5-bis(trifluoromethyl)phenyl]amino}carbonyl)amino]phenyl}pyrazolo[1,5-a]pyrimidine-3-carboxylate], in that order: 3.78 µM and 31%.
As for `CCOC(=O)c1cnn2c(-c3cccc(NC(=O)Nc4cc(Cl)cc(Cl)c4)c3)ccnc12` [Example 17, ethyl 7-[3-({[(3,5-dichlorophenyl)amino]carbonyl}amino)phenyl]pyrazolo[1,5-a]pyrimidine-3-carboxylate], the IC50 is greater than 10 µM and the inhibition at 10 µM came to 30%.
Turning to `CCOC(=O)c1cnn2c(-c3cccc(NC(=O)Nc4ccc(SC)cc4)c3)ccnc12` [Example 18, ethyl 7-{3-[({[4-(methylthio)phenyl]amino}carbonyl)amino]phenyl}pyrazolo[1,5-a]pyrimidine-3-carboxylate], the IC50 is greater than 10 µM and the inhibition at 10 µM was 0%.
`CCOC(=O)c1cnn2c(-c3cccc(NC(=O)Nc4ccc(C(C)=O)cc4)c3)ccnc12` [Example 19, ethyl 7-[3-({[(4-acetylphenyl)amino]carbonyl}amino)phenyl]pyrazolo[1,5-a]pyrimidine-3-carboxylate]: the IC50 is greater than 10 µM and the inhibition at 10 µM worked out at 0%.
For `CCOC(=O)c1cnn2c(-c3cccc(NC(=O)Nc4ccc(C(C)C)cc4)c3)ccnc12` [Example 20, ethyl 7-[3-({[(4-isopropylphenyl)amino]carbonyl}amino)phenyl]pyrazolo[1,5-a]pyrimidine-3-carboxylate], in that order: greater than 10 µM and 30%.
For `CCOC(=O)c1cnn2c(-c3cccc(NC(=O)Nc4ccc5ccccc5c4)c3)ccnc12` [Example 21, ethyl 7-(3-{[(2-naphthylamino)carbonyl]amino}phenyl)pyrazolo[1,5-a]pyrimidine-3-carboxylate], in that order: 2.3 µM and 58%.
`CCOC(=O)c1cnn2c(-c3cccc(NC(=O)Nc4c(C)cc(C)cc4C)c3)ccnc12` [Example 22, ethyl 7-(3-{[(mesitylamino)carbonyl]amino}phenyl)pyrazolo[1,5-a]pyrimidine-3-carboxylate]: the IC50 is greater than 10 µM and the inhibition at 10 µM came to 34%.
For the compound `CCOC(=O)c1cnn2c(-c3cccc(NC(=O)Nc4ccc(OC(F)(F)F)cc4)c3)ccnc12` [Example 23, ethyl 7-{3-[({[4-(trifluoromethoxy)phenyl]amino}carbonyl)amino]phenyl}pyrazolo[1,5-a]pyrimidine-3-carboxylate], the IC50 is greater than 10 µM and the inhibition at 10 µM was determined as 20%.
For `CCOC(=O)c1cnn2c(-c3cccc(NC(=O)Nc4ccc(SC(F)(F)F)cc4)c3)ccnc12` [Example 24, ethyl 7-(3-{[({4-[(trifluoromethyl)thio]phenyl}amino)carbonyl]amino}phenyl)pyrazolo[1,5-a]pyrimidine-3-carboxylate], in that order: greater than 10 µM and 11%.
Consider `CCOC(=O)c1cnn2c(-c3cccc(NC(=O)Nc4ccc(F)c(Cl)c4)c3)ccnc12` [Example 25, ethyl 7-[3-({[(3-chloro-4-fluorophenyl)amino]carbonyl}amino)phenyl]pyrazolo[1,5-a]pyrimidine-3-carboxylate], for which the IC50 was determined as 0.6 µM and the inhibition at 10 µM is 76%.
